Type in all cases: cell-based
Test [1] has as its system M. hyorinis BTS-7. Briefly: Mycoplasma susceptibility testing (MIC). Here is the method:
(§1) The MIC's in Table I and Table II were determined by standard agar-dilution assays or broth-dilution microtiter test.

Test [2] has as its system M. gallisepticum S6. Description: Mycoplasma susceptibility testing (MIC). The following applies: Mycoplasmoides gallisepticum. How it is done: as §1
For test [3], the system named is M. gallisepticum BG44T. Briefly: Mycoplasma susceptibility testing (MIC). The following applies: Mycoplasmoides gallisepticum. How it is done: as §1
Test [4] concerns Streptococcus pneumoniae 49619 (QC strain). Briefly: Antibacterial MIC, agar-dilution or broth-dilution microtiter test. The note with it: Strain M: Streptococcus pneumoniae 49619 (QC strain). Here is the method: as §1
In test [5] the test system is Staphylococcus aureus 5-1. The description is as above. The note with it: 51; Strain G: Staphylococcus aureus 5-1. How it is done:
as §1

The test system of test [6] is Klebsiella pneumoniae 3753. Described as above. The note with it: Strain J: Klebsiella pneumoniae 3753. How it is done: as §1
For test [7], the system named is Escherichia coli IN-F6-7. The description is as above. The following applies: INF67; Strain E: Escherichia coli IN-F6-7. How it is done: as §1
Test [8] concerns Staphylococcus aureus 29213 (QC strain). Described as above. The note with it: Strain H: Staphylococcus aureus 29213 (QC strain). How it is done: as §1
For test [9], the system named is Actinobacillus pleuropneumoniae serotype 1. Described as above. The following applies: Strain A: Actinobacillus pleuropneumoniae serotype 1. How it is done:
as §1

In test [10] the test system is Streptococcus pneumoniae 2349. The description is as above. The following applies: Strain L: Streptococcus pneumoniae 2349. How it is done:
as §1

Test [11] concerns Klebsiella pneumoniae 3699. The test is described as above. The note with it: Strain K: Klebsiella pneumoniae 3699. How it is done:
as §1

The test system of test [12] is Actinobacillus pleuropneumoniae serotype 7. Described as above. The note with it: Strain B: Actinobacillus pleuropneumoniae serotype 7. Here is the method:
as §1

For test [13], the system named is Escherichia coli 25922 (QC strain). The test is described as above. The note with it: Strain F: Escherichia coli 25922 (QC strain). How it is done: as §1
For test [14], the system named is Pasteurella 8229. The description is as above. The note with it: Strain D: Pasteurella 8229. How it is done:
as §1

Test [15] deals with salmonella LD4-8. The description is as above. The following applies: LD48; Strain I: salmonella LD4-8. Here is the method:
as §1

Test [16] relates to Pasteurella 8217. The description is as above. The note with it: Strain C: Pasteurella 8217. How it is done:
as §1

The structures appear in SMILES notation. Converted amounts (≈) assume the structure as drawn. A value given as a limit tells only on which side of the number the result lay.

Experimental findings from patent publication US10287275B2, “16-member triamilide derivatives and uses thereof” (VICTOR PHARMA CO., LTD. ZHENJIANG, priority 2015, dated 2019) are described below.

As to `CC[C@H]1OC(=O)C[C@@H](O)[C@H](C)[C@@H](O[C@@H]2O[C@H](C)[C@@H](O)[C@H](N(C)C)[C@H]2O)[C@@H](CCN2CCCCC2)C[C@@H](C)C(=O)/C=C/C(C)=C/[C@@H]1CN(CC)Cc1ccccc1` [Compound 4i, (4R,5S,6S,7R,9R,11E,13E,15R,16R)-15-((benzyl(ethyl)amino)methyl)-6-(((2R,3R,4S,5S,6R)-4-(dimethylamino)-3,5-dihydroxy-6-methyltetrahydro-2H-pyran-2-yl)oxy)-16-ethyl-4-hydroxy-5,9,13-trimethyl-7-(2-(piperidin-1-yl)ethyl)oxacyclohexadeca-11,13-diene-2,10-dione], the MIC in test [1] is 15.6 µg/mL (≈ 19.9 µM); in [2], < 0.12 µg/mL; in test [3], < 0.12 µg/mL.

Turning to `CC[C@H]1OC(=O)C[C@@H](O)[C@H](C)[C@@H](O[C@@H]2O[C@H](C)[C@@H](O)[C@H](N(C)C)[C@H]2O)[C@@H](CCN2CC(C)CC(C)C2)C[C@@H](C)C(=O)/C=C/C(C)=C/[C@@H]1CN1Cc2ccccc2C1` (stereo partly drawn) [Compound 8c, (4R,5S,6S,7R,9R,11E,13E,15R,16R)-6-(((2R,3R,4S,5S,6R)-4-(dimethylamino)-3,5-dihydroxy-6-methyltetrahydro-2H-pyran-2-yl)oxy)-7-(2-(3,5-dimethylpiperidin-1-yl)ethyl)-16-ethyl-4-hydroxy-15-(isoindolin-2-ylmethyl)-5,9,13-trimethyloxacyclohexadeca-11,13-diene-2,10-dione], the MIC in test [1] was 125 µg/mL (≈ 157 µM); in test [2] it was 15.6 µg/mL (≈ 19.6 µM); in [3] it was 7.82 µg/mL (≈ 9.82 µM).

As for `CC[C@H]1OC(=O)C[C@@H](O)[C@H](C)[C@@H](O[C@@H]2O[C@H](C)[C@@H](O)[C@H](N(C)C)[C@H]2O)[C@@H](CCN2CCCCC2)C[C@@H](C)C(=O)/C=C/C(C)=C/[C@@H]1CN(Cc1ccccc1)C(C)C` [Compound 4j, (4R,5S,6S,7R,9R,11E,13E,15R,16R)-15-((benzyl(isopropyl)amino)methyl)-6-(((2R,3R,4S,5S,6R)-4-(dimethylamino)-3,5-dihydroxy-6-methyltetrahydro-2H-pyran-2-yl)oxy)-16-ethyl-4-hydroxy-5,9,13-trimethyl-7-(2-(piperidin-1-yl)ethyl)oxacyclohexadeca-11,13-diene-2,10-dione], the MIC in [1] is 0.49 µg/mL (≈ 0.614 µM); in test [2], < 0.12 µg/mL; in [3], < 0.12 µg/mL.

As to `CC[C@H]1OC(=O)C[C@@H](O)[C@H](C)[C@@H](O[C@@H]2O[C@H](C)[C@@H](O)[C@H](N(C)C)[C@H]2O)[C@@H](CCN2CCCCC2)C[C@@H](C)C(=O)/C=C/C(C)=C/[C@@H]1CN1CCCC1` [Compound 4d, (4R,5S,6S,7R,9R,11E,13E,15R,16R)-6-(((2R,3R,4S,5S,6R)-4-(dimethylamino)-3,5-dihydroxy-6-methyltetrahydro-2H-pyran-2-yl)oxy)-16-ethyl-4-hydroxy-5,9,13-trimethyl-7-(2-(piperidin-1-yl)ethyl)-15-(pyrrolidin-1-ylmethyl)oxacyclohexadeca-11,13-diene-2,10-dione], the minimum inhibitory concentration (MIC) is > 256 µg/mL in test [4]; > 256 µg/mL in test [5]; > 256 µg/mL in test [6]; > 256 µg/mL in test [7]; 256 µg/mL (≈ 356 µM) in test [8]; > 256 µg/mL in test [9]. The MIC is 64 µg/mL (≈ 88.9 µM) in test [10]; > 256 µg/mL in [11]; > 256 µg/mL in test [12]; > 256 µg/mL in [13]; 128 µg/mL (≈ 178 µM) in test [14]; > 256 µg/mL in test [15]. It took 256 µg/mL (≈ 356 µM) to inhibit growth in test [16] (MIC).

In the case of `CC[C@H]1OC(=O)C[C@@H](O)[C@H](C)[C@@H](O[C@@H]2O[C@H](C)[C@@H](O)[C@H](N(C)C)[C@H]2O)[C@@H](CCN2Cc3ccccc3C2)C[C@@H](C)C(=O)/C=C/C(C)=C/[C@@H]1CN1CCCCC1` [Compound 12b, (4R,5S,6S,7R,9R,11E,13E,15R,16R)-6-(((2R,3R,4S,5S,6R)-4-(dimethylamino)-3,5-dihydroxy-6-methyltetrahydro-2H-pyran-2-yl)oxy)-16-ethyl-4-hydroxy-7-(2-(isoindolin-2-yl)ethyl)-5,9,13-trimethyl-15-(piperidin-1-ylmethyl)oxacyclohexadeca-11,13-diene-2,10-dione], the MIC is 3.91 µg/mL (≈ 5.09 µM) in test [1], < 0.12 µg/mL in [2] and < 0.12 µg/mL in test [3].

Turning to `CC[C@H]1OC(=O)C[C@@H](O)[C@H](C)[C@@H](O[C@@H]2O[C@H](C)[C@@H](O)[C@H](N(C)C)[C@H]2O)[C@@H](CCN2Cc3ccccc3C2)C[C@@H](C)C(=O)/C=C/C(C)=C/[C@@H]1CN(C)Cc1ccccc1` [Compound 12a, (4R,5S,6S,7R,9R,11E,13E,15R,16R)-15-((benzyl(methyl)amino)methyl)-6-(((2R,3R,4S,5S,6R)-4-(dimethylamino)-3,5-dihydroxy-6-methyltetrahydro-2H-pyran-2-yl)oxy)-16-ethyl-4-hydroxy-7-(2-(isoindolin-2-yl)ethyl)-5,9,13-trimethyloxacyclohexadeca-11,13-diene-2,10-dione], the MIC was 15.6 µg/mL (≈ 19.4 µM) in [1], < 0.12 µg/mL in test [2] and < 0.12 µg/mL in test [3].

As to `CC[C@H]1OC(=O)C[C@@H](O)[C@H](C)[C@@H](O[C@@H]2O[C@H](C)[C@@H](O)[C@H](N(C)C)[C@H]2O)[C@@H](CCN2CC(C)CC(C)C2)C[C@@H](C)C(=O)/C=C/C(C)=C/[C@@H]1CN(C)Cc1cccnc1` (stereo partly drawn) [Compound 8b, (4R,5S,6S,7R,9R,11E,13E,15R,16R)-6-(((2R,3R,4S,5S,6R)-4-(dimethylamino)-3,5-dihydroxy-6-methyltetrahydro-2H-pyran-2-yl)oxy)-7-(2-(3,5-dimethylpiperidin-1-yl)ethyl)-16-ethyl-4-hydroxy-5,9,13-trimethyl-15-((methyl(pyridin-3-ylmethyl)amino)methyl)oxacyclohexadeca-11,13-diene-2,10-dione], the MIC in test [1] turned out to be 125 µg/mL (≈ 156 µM); in test [2] it was 3.91 µg/mL (≈ 4.89 µM); in test [3], 0.98 µg/mL (≈ 1.23 µM).

In the case of `CC[C@H]1OC(=O)C[C@@H](O)[C@H](C)[C@@H](O[C@@H]2O[C@H](C)[C@@H](O)[C@H](N(C)C)[C@H]2O)[C@@H](CCN2Cc3ccccc3C2)C[C@@H](C)C(=O)/C=C/C(C)=C/[C@@H]1CN(CC)CC` [Compound 12c, (4R,5S,6S,7R,9R,11E,13E,15R,16R)-15-((diethylamino)methyl)-6-(((2R,3R,4S,5S,6R)-4-(dimethylamino)-3,5-dihydroxy-6-methyltetrahydro-2H-pyran-2-yl)oxy)-16-ethyl-4-hydroxy-7-(2-(isoindolin-2-yl)ethyl)-5,9,13-trimethyloxacyclohexadeca-11,13-diene-2,10-dione], the MIC in test [1] was 7.82 µg/mL (≈ 10.3 µM); in test [2], < 0.12 µg/mL; in test [3] it was < 0.12 µg/mL.

As for `CC[C@H]1OC(=O)C[C@@H](O)[C@H](C)[C@@H](O[C@@H]2O[C@H](C)[C@@H](O)[C@H](N(C)C)[C@H]2O)[C@@H](CCN2CC(C)CC(C)C2)C[C@@H](C)C(=O)/C=C/C(C)=C/[C@@H]1CN(Cc1ccccc1)C(C)C` (stereo partly drawn) [Compound 8a, (4R,5S,6S,7R,9R,11E,13E,15R,16R)-15-((benzyl(isopropyl)amino)methyl)-6-(((2R,3R,4S,5S,6R)-4-(dimethylamino)-3,5-dihydroxy-6-methyltetrahydro-2H-pyran-2-yl)oxy)-7-(2-(3,5-dimethylpiperidin-1-yl)ethyl)-16-ethyl-4-hydroxy-5,9,13-trimethyloxacyclohexadeca-11,13-diene-2,10-dione], the figures for the MIC in test [1], in [2] and in [3] were 3.91 µg/mL (≈ 4.73 µM), < 0.12 µg/mL and < 0.12 µg/mL, respectively.

In the case of `CC[C@H]1OC(=O)C[C@@H](O)[C@H](C)[C@@H](O[C@@H]2O[C@H](C)[C@@H](O)[C@H](N(C)C)[C@H]2O)[C@@H](CCN2Cc3ccccc3C2)C[C@@H](C)C(=O)/C=C/C(C)=C/[C@@H]1CN1CC(C)CC(C)C1` (stereo partly drawn) [Compound 12d, (4R,5S,6S,7R,9R,11E,13E,15R,16R)-6-(((2R,3R,4S,5S,6R)-4-(dimethylamino)-3,5-dihydroxy-6-methyltetrahydro-2H-pyran-2-yl)oxy)-15-((3,5-dimethylpiperidin-1-yl)methyl)-16-ethyl-4-hydroxy-7-(2-(isoindolin-2-yl)ethyl)-5,9,13-trimethyloxacyclohexadeca-11,13-diene-2,10-dione], the MIC in test [1] was 3.91 µg/mL (≈ 4.91 µM); in test [2] it was < 0.12 µg/mL; in test [3], < 0.12 µg/mL.

As a reminder, the MIC is the least concentration at which growth counts as inhibited.
